# Data: patent publication US11253519B2, “Composition used to improve symptoms of autism spectrum disorder, and method using same for improving symptoms of autism spectrum disorder” (RENASCIENCE CO., LTD., priority 2016, dated 2022)
# Key:
# Type in all cases: in vivo, human
# [1] = Vitamin B1 level in whole blood, serum pyridoxamine and pyridoxal levels and Wernicke's encephalopathy in two test subjects on pyridoxamine medication
# [2] = tested on: ASD patient; assay: RSB-R (Repetitive Behavior Scale-Revised, Japanese version, 43 items, 6 subscales) in ASD patients before and after intake; settings: 800 mg/day oral + fursultiamine 25 mg/day, 8 weeks after the intake
# From the text: RSB-R is composed of 6 subscales (I. Stereotypical Behavior, II. Self-Harming Behavior, III. Obsessive-Compulsive Behavior, IV. Ritualized Behavior, V. Insistence on Sameness, and VI. Circumscribed Interests) and 43 items. RSB-R (Japanese version) is a Japanese version of RBS-R, which is a rating scale used worldwide, and whose validity has already been verified (Inada et al., Research in Autism Spectrum Disorders, Vol. 15-16, July 2015, pp. 60-68; Inada et al., Study on reliability and validity of the Japanese version of Repetitive Behaviors Scale—Revised (RBS-R), The Japanese Journal of Developmental Psychology, 2012, Vol. 23, No. 2, pp. 123-133). FIG. 4 illustrates 43 items of RSB-R (including 6 subscales), and the relation between the 43 items of RSB-R and diagnostic criteria A and B of DSM-5.
# (§1) The symptoms of ASD of the ASD patient were assessed based on the scores of ABC-J, PARS-TR, and RSB-R (Japanese version) by a medical doctor who is a researcher of ASD.
# The ASD symptoms of the ASD patient were assessed based on the scores in ABC-J and RSB-R (Japanese version) by a medical doctor who is a researcher of ASD.
# [3] = Plasma kinetics of pyridoxamine and metabolites in healthy male adults (LC-MS-MS)
# From the text: Rather, in blood, the pyridoxal level was higher than the pyridoxamine level. […] The observation results were obtained in a clinical trial performed by collaborators of the applicant of this application, and are shown here simply for reference.
# [4] = tested on: ASD patient; assay: PARS-TR rating (items 25 to 57, each 0 none, 1 somewhat noticeable, 2 noticeable) in ASD patients before and after intake
# From the text: PARS (Pervasive Developmental Disorder Autism Society Japan Rating Scale) is a scale composed of 57 items to determine the characteristics in pervasive developmental disorder (PDD) (which may hereinafter also simply be referred to as “PDD”), and to evaluate the support difficulty by interviewing the mothers of the subjects (or other rearer, if it is difficult to obtain information from the mother of a subject); PARS-TR is its revised version. The revised version contains revised wording of the commentary of question items, while maintaining the reliability and validity of the rating scale of the former PARS. On a side note, question items and rating in PARS-TR, PARS-TR items rated for each age group, a score calculation method, and an ASD characteristics test method are detailed in PARS-TR PARS Text Revision (written and edited by Hattatsu Shogai Shien no tameno Hyoka Kenkyu Kai [Study of the Assessment for Supporting Developmental Disorder], a general incorporated association, Spectrum Publishing Company), the disclosure of which is incorporated herein by reference.
# FIG. 3 illustrates 57 rating items prescribed in PARS-TR. The rating items vary depending on the age group of targets for diagnosis (children before school age (early childhood), elementary school students (childhood), and junior high-school students or older subjects (early adolescence or adulthood)). Items 1 to 34 are directed to those in early childhood. Items 1 to 34 are intended to assess the peak in early childhood (assessment for most noticeable symptoms in early childhood) of all subjects (children before school age, elementary school students, and junior high-school students or older subjects), and also to assess the current condition of subjects in early childhood. Peak assessment and current condition assessment are performed for young children because, for example, clear autistic symptoms before the age of 4 years may be alleviated after age 5. Young children are not assessed by items 35 to 57. Elementary school students are assessed by items 1 to 34 for early childhood to determine the peak in early childhood, and items 21 to 53 for childhood to determine the current condition. Junior high-school students or older subjects are assessed by the 34 items for early childhood to determine the peak in early childhood, and items 25 to 57 for early adolescence or adulthood to determine the current condition. The specific evaluation method is described in detail in Example 2.
# Assessment by PARS-TR is performed by questioning the mother or someone else regarding the severity of symptoms concerning development and behaviors described in rating items in terms of “assessment of the peak in early childhood” and “assessment of the current condition,” and the answer was classified into the following 3 levels and assessed: “0=none (no symptoms asked were observed/no),” “1=somewhat noticeable (symptoms asked were sometimes (somewhat) observed/yes),” and “2=noticeable (symptoms asked were often (quite) observed/yes).” The PARS-TR score is a value determined by simply summing up the assessment score of each item, excluding items that cannot be assessed. Specifically, the cutoff value at which the subject is diagnosed with PDD is score 9 in early childhood, score 13 in childhood, and score 20 in early adolescence or adulthood.
# […] The total scores were compared.
# as §1
# [5] = case 2, 600 mg/day oral + fursultiamine 25 mg/day, 17 Days After Administration, Before Administration: 0
# [6] = case 2, 600 mg/day oral + fursultiamine 25 mg/day, 17 Days After Administration, Before Administration: 1
# [7] = case 2, 600 mg/day oral + fursultiamine 25 mg/day, 17 Days After Administration, Before Administration: 2
# [8] = case 3, 800 mg/day oral + fursultiamine 25 mg/day, 8 weeks after the intake, before intake: rating 1
smiles,measurement,setting,value
Cc1ncc(CO)c(CN)c1O.Cl.Cl [pyridoxamine dihydrochloride],concentration at 4 weeks,"[1]; human, serum, oral, subject ID No. 3, 4 weeks after start of administration",1540 ng/mL
same,concentration at 12 weeks,"[1]; human, serum, oral, subject ID No. 3, 12 weeks after start, with fursultiamine 75 mg/day",23.2 ng/mL
same,concentration at 8 weeks,"[1]; human, serum, oral, subject ID No. 6, 8 weeks after start of administration",421 ng/mL
same,concentration at 11 weeks,"[1]; human, serum, oral, subject ID No. 6, 11 weeks after start, with fursultiamine",140 ng/mL
same,brain MRI finding during medication,"[1]; subject ID No. 3, 6 weeks after start of administration, epilepsy-like symptom",sign suggestive of Wernicke's encephalopathy
same,brain MRI finding during medication,"[1]; subject ID No. 6, 9 weeks after start of administration",signs suggestive of Wernicke's encephalopathy
same,RBS-R total score for each subscale compared with before the intake,"[2]; case 3, 6 subscales, FIG. 8B",significant decrease
same,RBS-R total score compared with before the intake,"[2]; case 3, FIG. 8A",significant decrease
same,total score of all items in RBS-R compared with before the intake,"[2]; case 4, FIG. 10A",significantly decreased
same,"RBS-R total score of subscale items (Stereotypical Behavior, Self-Harming Behavior, Obsessive-Compulsive Behavior, Insistence on Sameness)","[2]; case 4, FIG. 10B",significantly decreased
same,"plasma levels of pyridoxamine, pyridoxal, and 4-pyridoxic acid versus dose","[3]; 300, 600, 900 mg/dose oral",increased along with the increase in dose
same,time to peak plasma level of pyridoxamine (unchanged substance),"[3]; 300, 600 or 900 mg/dose oral at 0, 6 and 12 hours, trial by collaborators of the applicant",3 h
same,plasma pyridoxine (PN) level,"[3]; 300, 600 or 900 mg/dose oral, FIG. 14B",did not show any substantial change
same,"PARS-TR item 27: Having negative lifestyle habits, and being incapable of living independently",[4]; [5],0
same,"PARS-TR item 29: Showing extreme pickiness in food, with no extremely narrow range of food choice",[4]; [5],0
same,PARS-TR item 31: Being insensitive or sensitive to pain or heat,[4]; [5],0
same,PARS-TR item 32: Being terrified of nothing,[4]; [5],0
same,"PARS-TR item 34: Showing self-harming behaviors, such as hitting the head on the wall or biting the hand",[4]; [5],0
same,PARS-TR item 39: Having difficulty understanding what is said from one situation to another,[4]; [5],0
same,"PARS-TR item 40: Using big words, but not fully understanding the meaning thereof",[4]; [5],0
same,PARS-TR item 41: Difficulty understanding who is talking to who in a large group conversation,[4]; [5],0
same,PARS-TR item 42: Being incapable of explaining how and why,[4]; [5],0
same,PARS-TR item 47: Enacting a familiar scene from a TV show alone,[4]; [5],0
same,PARS-TR item 48: Persistently and repeatedly harassing someone on purpose,[4]; [5],0
same,PARS-TR item 49: Always wanting to be the best,[4]; [5],0
same,"PARS-TR item 50: Showing tic symptoms (e.g., blinking, head movements, abuseful language)",[4]; [5],0
same,PARS-TR item 51: Being restless in a manner inappropriate for the context,[4]; [5],0
same,"PARS-TR item 53: Showing behavioral arrest, and becoming incapable of moving to the next act fo frozen",[4]; [5],0
same,PARS-TR item 25: Persistently asking the same question,[4]; [6],0
same,PARS-TR item 26: Showing confusion when regular daily routine of procedures suddnly change,[4]; [6],1
same,PARS-TR item 33: Suddenly crying or becoming upset,[4]; [6],0
same,PARS-TR item 36: Showing self-centered behaviors without regard for surrounding people,[4]; [6],0
same,PARS-TR item 37: Showing interactive behaviors inappropriate for the context when approached by someone,[4]; [6],1
same,PARS-TR item 38: Interacting with others only when having a request,[4]; [6],0
same,PARS-TR item 43: Speaking in a unnatural and monotonous tone,[4]; [6],1
same,PARS-TR item 44: Having difficulty understanding another person's feeling or point of view,[4]; [6],0
same,"PARS-TR item 45: Having difficulty understanding jokes and irony, and interpreting them literally",[4]; [6],1
same,"PARS-TR item 52: Being very careless, unable to behave appropriately for the context",[4]; [6],0
same,PARS-TR item 54: Appearing unashamed,[4]; [6],1
same,PARS-TR item 55: Being easily deceived,[4]; [6],1
same,"PARS-TR item 56: Being likely to feel victimized, suspicious, or aggressive",[4]; [6],0
same,"PARS-TR item 57: Being emotionally unstable, and showing frequent emotional ups and downs",[4]; [6],0
same,PARS-TR item 28: Becoming mentally unstable when recalling bad events in the past,[4]; [7],1
same,PARS-TR item 30: Being disgusted with a particular sound,[4]; [7],1
same,"PARS-TR item 46: Being keen on acquiring knowledge in a particular field, such as the names of places or train stations",[4]; [7],1
same,PARS-TR Total Score of Items 25 to 57,"[4]; case 2, 600 mg/day oral + fursultiamine 25 mg/day, 17 Days After Administration, Before Administration: 22, cutoff 20 or more",11
same,severity of hypersensibility,"[4]; case 3, 800 mg/day oral + fursultiamine 25 mg/day, 8 weeks",lowered the severity of hypersensibility
same,PARS-TR item 31 rating (insensitive to pain),[4]; [8],1
same,"PARS-TR item 32 rating (frightened by wipers, ceiling fan)",[4]; [8],0
same,PARS-TR item 30 rating (hyperacusis),"[4]; case 3, 800 mg/day oral + fursultiamine 25 mg/day, 8 weeks after the intake, before intake: rating 2",1
same,PARS-TR current score in early adolescence or adulthood,"[4]; case 3, 800 mg/day oral + fursultiamine 25 mg/day, 18 weeks after the intake, before intake: 21, cutoff score 20",14
